Blank lines part the entries; values can stand above or below the molecule they belong to. Activity calls are given as the source filed them.
Assays:
[1] = target: Cytochrome P450 2C9 (Homo sapiens, UniProt P11712); conditions: Potency
[2] = target: T1, Alkaline phosphatase, tissue-nonspecific isozyme (Homo sapiens, UniProt P05186); assay: human TNAP enzyme inhibitors, SAR follow-up, biochemical, luminescent, dose response (AID 1056)
T1 sequence (P05186 whole entry): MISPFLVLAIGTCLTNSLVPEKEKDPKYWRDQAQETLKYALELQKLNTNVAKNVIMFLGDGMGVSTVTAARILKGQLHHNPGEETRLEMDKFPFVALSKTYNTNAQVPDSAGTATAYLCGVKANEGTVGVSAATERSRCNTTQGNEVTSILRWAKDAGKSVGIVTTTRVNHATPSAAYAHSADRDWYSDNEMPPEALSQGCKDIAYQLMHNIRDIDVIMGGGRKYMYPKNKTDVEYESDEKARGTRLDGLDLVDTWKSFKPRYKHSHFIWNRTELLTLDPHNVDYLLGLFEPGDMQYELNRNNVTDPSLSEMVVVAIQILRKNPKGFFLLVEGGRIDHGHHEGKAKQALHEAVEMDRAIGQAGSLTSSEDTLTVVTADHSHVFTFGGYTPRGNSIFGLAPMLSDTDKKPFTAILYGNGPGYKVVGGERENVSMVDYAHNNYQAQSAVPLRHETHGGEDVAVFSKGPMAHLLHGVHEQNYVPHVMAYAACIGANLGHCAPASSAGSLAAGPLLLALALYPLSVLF

[3] = target: Glyceraldehyde-3-phosphate dehydrogenase (Homo sapiens, UniProt P04406)
Chain of Glyceraldehyde-3-phosphate dehydrogenase (P04406 whole entry): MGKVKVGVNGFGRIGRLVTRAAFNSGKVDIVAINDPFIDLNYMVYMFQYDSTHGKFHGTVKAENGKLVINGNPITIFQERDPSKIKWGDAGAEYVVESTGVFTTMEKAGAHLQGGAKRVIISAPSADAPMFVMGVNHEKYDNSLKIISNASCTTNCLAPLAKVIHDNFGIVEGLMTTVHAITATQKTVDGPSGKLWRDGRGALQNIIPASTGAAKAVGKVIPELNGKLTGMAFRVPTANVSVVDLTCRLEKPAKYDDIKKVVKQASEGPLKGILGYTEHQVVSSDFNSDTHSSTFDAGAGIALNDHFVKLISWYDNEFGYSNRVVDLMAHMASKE

[4] = target: T2, Polyadenylate-binding protein 1 (Homo sapiens, UniProt P11940); assay: PABP1 MLLE–PAM2 interaction inhibitors, dose response, miRNA deadenylation inhibitor project, biochemical, fluorescence polarization, Cy5-PAM2 peptide, secondary (AID 602260); assay type: functional; conditions: read-out: IC50_Mean
T2 sequence (P11940 whole entry): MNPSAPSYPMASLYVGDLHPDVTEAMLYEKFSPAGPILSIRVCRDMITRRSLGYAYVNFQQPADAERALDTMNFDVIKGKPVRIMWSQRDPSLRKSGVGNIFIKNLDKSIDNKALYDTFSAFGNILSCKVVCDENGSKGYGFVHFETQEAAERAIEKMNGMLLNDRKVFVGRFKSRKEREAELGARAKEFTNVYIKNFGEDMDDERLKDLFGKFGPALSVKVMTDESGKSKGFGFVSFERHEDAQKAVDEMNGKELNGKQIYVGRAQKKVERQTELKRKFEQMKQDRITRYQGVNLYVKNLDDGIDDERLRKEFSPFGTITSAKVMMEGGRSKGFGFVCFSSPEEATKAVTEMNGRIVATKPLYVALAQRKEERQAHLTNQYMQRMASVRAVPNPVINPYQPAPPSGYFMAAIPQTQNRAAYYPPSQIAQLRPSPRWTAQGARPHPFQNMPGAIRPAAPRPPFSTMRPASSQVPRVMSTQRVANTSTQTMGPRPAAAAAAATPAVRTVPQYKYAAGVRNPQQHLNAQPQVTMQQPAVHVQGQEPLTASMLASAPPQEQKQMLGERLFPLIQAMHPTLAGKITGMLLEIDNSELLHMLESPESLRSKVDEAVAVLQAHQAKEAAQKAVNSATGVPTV

[5] = target: T2, Polyadenylate-binding protein 1; assay: PABP1 MLLE–PAM2 binding inhibitor potency, dose response, biochemical, fluorescence polarization, FITC-PAM2 peptide (AID 602259); assay type: functional; conditions: read-out: IC50_Mean
[6] = target: Beta-galactosidase (Escherichia coli, UniProt Q8VNN2); assay: beta-galactosidase enzyme inhibitors and activators, dose response, artefact control for CCR6 antagonist project, biochemical, E. coli enzyme, set 3 (AID 504712); assay type: functional
[7] = cells
[8] = HEp-2 cell cytotoxicity, dose response, cytotoxicity control for RSV inhibitor project, HTS (AID 2410); assay type: functional; conditions: human respiratory syncytial virus
[9] = target: T3, Estrogen receptor (Homo sapiens, UniProt P03372);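 further: potency for inhibiting coactivator peptide recruitment to the receptor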
T3 sequence (P03372 whole entry): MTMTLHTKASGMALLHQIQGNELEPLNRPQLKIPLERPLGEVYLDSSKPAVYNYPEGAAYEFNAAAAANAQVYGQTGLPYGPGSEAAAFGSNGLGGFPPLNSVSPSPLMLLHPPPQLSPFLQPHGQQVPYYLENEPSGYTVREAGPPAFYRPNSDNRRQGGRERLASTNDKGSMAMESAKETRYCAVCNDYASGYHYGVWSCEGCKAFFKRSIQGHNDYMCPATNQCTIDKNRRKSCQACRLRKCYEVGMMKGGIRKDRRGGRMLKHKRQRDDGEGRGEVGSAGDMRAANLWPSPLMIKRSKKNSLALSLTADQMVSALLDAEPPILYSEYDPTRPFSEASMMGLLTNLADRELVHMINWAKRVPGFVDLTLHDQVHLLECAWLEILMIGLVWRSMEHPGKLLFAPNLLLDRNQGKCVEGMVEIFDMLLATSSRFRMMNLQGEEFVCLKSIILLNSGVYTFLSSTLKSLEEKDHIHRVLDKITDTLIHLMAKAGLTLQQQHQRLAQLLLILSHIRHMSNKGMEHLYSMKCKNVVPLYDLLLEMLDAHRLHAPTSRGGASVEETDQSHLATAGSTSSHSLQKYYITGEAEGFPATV

[10] = target: T4, Ubiquitin-conjugating enzyme E2 N (Homo sapiens, UniProt P61088); assay type: functional
T4 sequence (P61088 whole entry): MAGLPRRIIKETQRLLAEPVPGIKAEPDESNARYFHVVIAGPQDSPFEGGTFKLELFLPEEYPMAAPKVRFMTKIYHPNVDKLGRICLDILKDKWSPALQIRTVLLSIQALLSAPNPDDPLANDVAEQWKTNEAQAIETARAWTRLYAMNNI

[11] = inhibitors of intracellular T. cruzi replication, confirmation, NIH3T3 host cells, beta-gal luminescence (AID 2044); assay type: functional, cell-based;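 further: intracellular parasites grown in NIH/3T3 mouse fibroblasts as host cells; luminescent beta-galactosidase reporter signal from transgenic T. cruzi replicating inside host cells; inhibitors lower the luminescence signal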
[12] = growth suppression of PTEN-null colon cells, dose response, cell-based, HCT116 PTEN knockout (AID 1047); assay type: functional;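 further: HCT116 colon tumor cells with PTEN knocked out; cells exposed to compound for 60 hours before readout; potency for loss of cell viability measured by luminescence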
[13] = target: T4, Ubiquitin-conjugating enzyme E2 N; assay type: functional; remark: listed apart in the source
[14] = cytotoxicity toward NIH3T3 fibroblasts, dose response, counter-screen, cell-based, ATP luminescence, mouse fibroblasts (AID 2010); assay type: functional;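 further: cells exposed to compound for about 90 hours before reading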
[15] = target: T5, Short transient receptor potential channel 4 (Mus musculus, UniProt Q9QUQ5); assay: mouse TRPC4 channel activators, dose response, cell-based, HEK293 TRPC4/mu-opioid, Fluo-4 calcium (AID 434937); assay type: functional
T5 sequence (Q9QUQ5 whole entry): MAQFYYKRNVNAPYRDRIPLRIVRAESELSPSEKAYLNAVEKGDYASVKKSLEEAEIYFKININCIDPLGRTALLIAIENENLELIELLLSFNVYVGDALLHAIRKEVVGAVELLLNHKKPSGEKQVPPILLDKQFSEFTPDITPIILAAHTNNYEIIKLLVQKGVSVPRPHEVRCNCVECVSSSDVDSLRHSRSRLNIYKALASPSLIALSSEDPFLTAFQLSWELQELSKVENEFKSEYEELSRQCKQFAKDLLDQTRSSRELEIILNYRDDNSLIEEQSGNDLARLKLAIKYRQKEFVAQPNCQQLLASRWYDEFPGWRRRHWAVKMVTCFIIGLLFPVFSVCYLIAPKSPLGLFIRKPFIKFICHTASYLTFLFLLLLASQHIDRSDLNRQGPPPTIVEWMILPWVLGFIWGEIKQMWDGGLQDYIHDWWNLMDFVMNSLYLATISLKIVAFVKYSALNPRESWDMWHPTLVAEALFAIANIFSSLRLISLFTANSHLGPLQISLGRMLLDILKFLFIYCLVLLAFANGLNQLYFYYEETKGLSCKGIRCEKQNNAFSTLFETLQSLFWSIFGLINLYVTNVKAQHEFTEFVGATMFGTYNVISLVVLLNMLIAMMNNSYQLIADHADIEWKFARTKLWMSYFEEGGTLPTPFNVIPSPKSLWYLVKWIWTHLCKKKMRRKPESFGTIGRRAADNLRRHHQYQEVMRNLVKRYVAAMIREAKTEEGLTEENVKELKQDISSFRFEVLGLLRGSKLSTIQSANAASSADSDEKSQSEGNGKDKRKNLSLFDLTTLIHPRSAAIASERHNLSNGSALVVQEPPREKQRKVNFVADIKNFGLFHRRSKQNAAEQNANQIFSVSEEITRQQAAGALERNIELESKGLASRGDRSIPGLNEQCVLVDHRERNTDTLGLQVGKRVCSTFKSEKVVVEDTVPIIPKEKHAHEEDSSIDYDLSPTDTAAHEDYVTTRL

[16] = growth suppression of beta-catenin-knockout colon cells, dose response, cell-based, HCT116, human colon tumor (AID 1045); assay type: functional;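 further: HCT116 colon tumor cells with beta catenin knocked out; cells exposed to compound for 60 hours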
[17] = target: T6, Bcl-2-related protein A1 (Mus musculus, UniProt Q07440); assay type: functional;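 further: confirmatory dose–response counterscreen on Bfl-1, used to check hits from a UBC13 polyubiquitin inhibitor campaign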
T6 sequence (Q07440 whole entry): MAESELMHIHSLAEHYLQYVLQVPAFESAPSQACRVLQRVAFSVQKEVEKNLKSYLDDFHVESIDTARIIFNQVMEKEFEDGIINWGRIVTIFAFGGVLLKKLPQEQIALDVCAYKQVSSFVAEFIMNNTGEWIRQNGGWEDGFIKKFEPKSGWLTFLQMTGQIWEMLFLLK

[18] = target: T7, Voltage-gated N-type calcium channel alpha-1B subunit/Amyloid beta A4 precursor protein-binding family A member 1 (Homo sapiens, UniProt Q00975+Q02410); assay type: protein assay
T7 sequence (Q00975 whole entry): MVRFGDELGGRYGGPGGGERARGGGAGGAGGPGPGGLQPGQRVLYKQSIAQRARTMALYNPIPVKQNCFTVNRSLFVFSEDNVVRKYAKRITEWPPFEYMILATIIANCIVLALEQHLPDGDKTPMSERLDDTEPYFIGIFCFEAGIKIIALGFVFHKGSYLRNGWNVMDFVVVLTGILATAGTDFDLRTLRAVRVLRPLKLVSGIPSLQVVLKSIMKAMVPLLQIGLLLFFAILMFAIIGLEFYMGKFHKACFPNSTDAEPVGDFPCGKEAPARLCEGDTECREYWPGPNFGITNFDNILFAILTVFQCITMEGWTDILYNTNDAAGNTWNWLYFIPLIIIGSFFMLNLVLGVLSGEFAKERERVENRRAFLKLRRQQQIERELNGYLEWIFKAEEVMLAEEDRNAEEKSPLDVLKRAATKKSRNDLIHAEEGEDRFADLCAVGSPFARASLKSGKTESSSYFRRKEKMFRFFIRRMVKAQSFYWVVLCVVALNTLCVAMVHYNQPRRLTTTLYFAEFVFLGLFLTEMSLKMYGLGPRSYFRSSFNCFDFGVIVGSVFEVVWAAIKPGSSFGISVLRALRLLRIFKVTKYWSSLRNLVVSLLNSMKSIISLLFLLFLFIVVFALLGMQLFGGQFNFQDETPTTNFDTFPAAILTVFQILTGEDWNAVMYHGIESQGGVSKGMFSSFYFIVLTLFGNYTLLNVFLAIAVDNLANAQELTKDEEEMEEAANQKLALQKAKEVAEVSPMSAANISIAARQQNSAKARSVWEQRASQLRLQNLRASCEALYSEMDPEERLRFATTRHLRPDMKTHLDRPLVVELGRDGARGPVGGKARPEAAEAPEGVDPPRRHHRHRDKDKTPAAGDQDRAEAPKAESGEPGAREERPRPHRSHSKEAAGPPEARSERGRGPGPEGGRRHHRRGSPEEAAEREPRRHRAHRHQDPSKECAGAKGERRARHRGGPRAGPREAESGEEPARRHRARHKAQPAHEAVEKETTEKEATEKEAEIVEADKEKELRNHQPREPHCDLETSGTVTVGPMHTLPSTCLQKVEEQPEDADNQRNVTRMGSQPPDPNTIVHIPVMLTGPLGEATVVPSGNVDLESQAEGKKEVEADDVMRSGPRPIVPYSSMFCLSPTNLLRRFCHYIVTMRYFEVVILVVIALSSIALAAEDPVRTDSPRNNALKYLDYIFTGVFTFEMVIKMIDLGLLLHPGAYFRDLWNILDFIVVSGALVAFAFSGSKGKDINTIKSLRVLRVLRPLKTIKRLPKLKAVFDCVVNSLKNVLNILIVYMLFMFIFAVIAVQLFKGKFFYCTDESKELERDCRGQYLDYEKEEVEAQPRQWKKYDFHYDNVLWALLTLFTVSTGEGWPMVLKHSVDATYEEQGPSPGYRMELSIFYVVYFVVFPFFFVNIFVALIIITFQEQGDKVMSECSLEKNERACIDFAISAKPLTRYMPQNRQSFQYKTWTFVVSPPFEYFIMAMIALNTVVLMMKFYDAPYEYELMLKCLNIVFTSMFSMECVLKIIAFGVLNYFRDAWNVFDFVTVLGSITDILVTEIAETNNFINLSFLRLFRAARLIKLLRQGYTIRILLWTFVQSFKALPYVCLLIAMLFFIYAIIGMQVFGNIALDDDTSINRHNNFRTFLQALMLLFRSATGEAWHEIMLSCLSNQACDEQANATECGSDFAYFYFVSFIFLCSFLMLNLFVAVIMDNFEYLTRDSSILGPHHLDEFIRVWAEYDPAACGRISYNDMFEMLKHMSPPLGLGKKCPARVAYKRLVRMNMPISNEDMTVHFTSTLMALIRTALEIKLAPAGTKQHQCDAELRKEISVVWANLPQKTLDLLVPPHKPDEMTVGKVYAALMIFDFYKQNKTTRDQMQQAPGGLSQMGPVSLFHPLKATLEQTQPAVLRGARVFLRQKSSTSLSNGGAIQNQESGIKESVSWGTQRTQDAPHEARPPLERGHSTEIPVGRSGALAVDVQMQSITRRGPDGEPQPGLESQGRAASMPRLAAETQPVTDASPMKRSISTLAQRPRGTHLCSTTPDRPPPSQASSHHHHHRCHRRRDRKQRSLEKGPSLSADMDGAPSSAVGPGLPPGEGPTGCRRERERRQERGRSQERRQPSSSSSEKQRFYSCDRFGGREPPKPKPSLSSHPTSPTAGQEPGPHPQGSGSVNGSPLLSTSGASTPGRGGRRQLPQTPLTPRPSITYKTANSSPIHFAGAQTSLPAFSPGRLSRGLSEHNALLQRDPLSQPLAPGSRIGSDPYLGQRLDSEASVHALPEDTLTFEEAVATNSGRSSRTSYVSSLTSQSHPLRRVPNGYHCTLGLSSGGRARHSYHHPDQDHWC
T7 sequence (Q02410 whole entry): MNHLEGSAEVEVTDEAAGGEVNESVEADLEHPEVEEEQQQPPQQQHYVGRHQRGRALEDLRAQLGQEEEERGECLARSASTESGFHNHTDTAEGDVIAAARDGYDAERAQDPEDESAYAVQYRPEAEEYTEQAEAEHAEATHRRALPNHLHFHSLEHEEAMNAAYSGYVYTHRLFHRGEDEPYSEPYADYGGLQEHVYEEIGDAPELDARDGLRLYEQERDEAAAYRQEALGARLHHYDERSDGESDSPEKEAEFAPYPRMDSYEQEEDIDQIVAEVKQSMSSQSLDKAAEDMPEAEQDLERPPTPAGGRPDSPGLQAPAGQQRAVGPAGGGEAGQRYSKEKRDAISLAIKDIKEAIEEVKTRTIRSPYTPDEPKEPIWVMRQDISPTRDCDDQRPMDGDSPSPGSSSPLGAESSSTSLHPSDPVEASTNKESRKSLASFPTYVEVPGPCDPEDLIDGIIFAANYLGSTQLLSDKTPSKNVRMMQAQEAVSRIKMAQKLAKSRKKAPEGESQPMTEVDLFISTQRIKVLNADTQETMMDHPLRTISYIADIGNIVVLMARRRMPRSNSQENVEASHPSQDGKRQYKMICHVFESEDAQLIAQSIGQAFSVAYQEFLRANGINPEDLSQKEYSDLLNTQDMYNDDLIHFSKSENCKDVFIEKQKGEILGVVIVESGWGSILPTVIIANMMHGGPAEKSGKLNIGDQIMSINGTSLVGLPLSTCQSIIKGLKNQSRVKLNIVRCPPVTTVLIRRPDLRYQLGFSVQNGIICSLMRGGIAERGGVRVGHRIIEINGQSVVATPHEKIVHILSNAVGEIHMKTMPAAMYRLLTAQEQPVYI

[19] = target: T7, Voltage-gated N-type calcium channel alpha-1B subunit/Amyloid beta A4 precursor protein-binding family A member 1; assay type: protein assay; remark: listed apart in the source

Chain of Cytochrome P450 2C9 (P11712 whole entry): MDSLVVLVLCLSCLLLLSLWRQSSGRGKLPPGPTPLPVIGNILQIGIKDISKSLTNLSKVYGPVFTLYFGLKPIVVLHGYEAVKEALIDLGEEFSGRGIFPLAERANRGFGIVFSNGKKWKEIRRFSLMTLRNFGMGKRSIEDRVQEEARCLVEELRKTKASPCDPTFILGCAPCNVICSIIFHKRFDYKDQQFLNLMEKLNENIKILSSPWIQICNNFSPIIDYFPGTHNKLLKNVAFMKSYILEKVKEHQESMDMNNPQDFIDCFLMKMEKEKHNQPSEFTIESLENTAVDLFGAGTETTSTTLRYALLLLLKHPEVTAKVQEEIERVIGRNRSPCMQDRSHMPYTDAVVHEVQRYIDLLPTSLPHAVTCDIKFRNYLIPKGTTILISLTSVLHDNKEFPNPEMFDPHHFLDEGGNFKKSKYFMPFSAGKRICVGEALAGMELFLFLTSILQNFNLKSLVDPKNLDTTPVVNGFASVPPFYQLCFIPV

Structure (SMILES): CCCCn1c(N)c(C(=S)NC(=O)CC(C)(C)C)c(=O)n(C)c1=O
IC50 [4]: > 66 µM (inactive)
IC50 [5]: > 66 µM (inactive)
IC50 [6]: > 66.6 µM (inactive)

Structure (SMILES): O=S(=O)(c1ccccc1F)N1CCC(c2nc(O)c3nnn(Cc4ccc5c(c4)OCCO5)c3n2)CC1
IC50 [7]: 45.3 µM (active)
CC50 [8]: > 50 µM (active)

Structure (SMILES): Cc1ccccc1Nc1nc(N)nc(CSc2nc3ccccc3c(=O)n2C)n1
IC50 [9]: > 50 µM (not active)

Structure (SMILES): COc1ccc(-c2cc(C#N)nc(N3CCNCC3)n2)cc1
IC50 [10]: 15.9 µM (active)
EC50 [11]: 3.69 µM (active)
EC50 [12]: 15.2 µM (active)
IC50 [13]: 15.5 µM (active)
EC50 [14]: > 60 µM (not active)
EC50 [15]: 1.88 µM (active)
EC50 [16]: 9.93 µM (active)
IC50 [17]: > 20 µM (inactive)

Structure (SMILES): CCOC(=O)N1CCN(C(=O)CCN2C(=O)/C(=C\c3cccc(OC)c3)SC2=S)CC1
IC50 [18]: 28.4 µM (active)
IC50 [19]: > 50 µM (inactive)

Structure (SMILES): Cc1ccc(-c2nc3cccnc3s2)cc1NS(=O)(=O)c1cccs1
IC50 [7]: 8.63 µM (active)
CC50 [8]: 20.4 µM (active)

Results, then the molecule that gave them:

AC50 [1]: 7.94 µM (inconclusive)
Structure (SMILES): COc1ccc(/C=C/C2=CC3(C)CC2(C)C(c2ccc(OC)cc2)CC3=O)cc1 (centres undefined)

IC50 [2]: > 100 µM (inactive)
IC50 [3]: > 100 µM (not active)
Structure (SMILES): O=C1C2CCCCC2C(=O)N1c1nc(CCc2ccccc2)n[nH]1 (centres undefined)

IC50 [10]: 12.5 µM (active)
IC50 [13]: 14.5 µM (active)
IC50 [17]: > 20 µM (inactive)
Structure (SMILES): CC(C)CC(C(=O)NC(C)(C)C)N(Cc1ccccc1Cl)C(=O)c1snc(C(N)=O)c1N (centres undefined)

IC50 [9]: 23.7 µM (active)
Structure (SMILES): CSc1ccc(S(=O)(=O)Nc2cccc(F)c2)cc1

IC50 [2]: 0.12 µM (active)
IC50 [3]: > 10 µM (inconclusive)
Structure (SMILES): NNC(=O)c1cc(-c2ccc(F)cc2F)[nH]n1

IC50 [18]: 7.74 µM (active)
IC50 [19]: > 50 µM (inactive)
Structure (SMILES): N#C/C(=C\c1ccc(OCCN2CCOCC2)cc1)C(=O)Nc1ccc(S(N)(=O)=O)cc1
